Results reported in US8324245B2, “Quinoline derivative and quinazoline derivative inhibiting self-phosphorylation of hepatocytus proliferator receptor, and medicinal composition containing the same” (Kyowa Hakko Kirin Co., Ltd., priority 2001, dated 2012).

What follows are compounds tested against T1, met (HGF receptor) in human gastric cancer cells MKN45 (Homo sapiens, UniProt P08581) (assay: Inhibitory activity against met-autophosphorylation using ELISA method (2), MKN45 cells, HGF-independent).
T1 construct: endogenous in cells; host or cells: MKN45 human gastric cancer cells
Assay type: cell-based
Method: Cells were cultured with RPMI medium containing 0.1% fetal calf serum in 96-well flat-bottom plate in an amount of 3×10^4 per well, and were incubated at 37° C. overnight. The medium was then replaced by a fresh RPMI medium containing 0.1% fetal calf serum. A solution of the test compound in dimethyl sulfoxide was added to each well, and the incuvation was continued at 37° C. for additional one hr. The medium was removed, the cells were washed with phosphate buffered saline (pH 7.4), and 50 μl of a lysis buffer (20 mM HEPES (pH 7.4), 150 mM NaCl, 0.2% Triton X-100, 10% glycerol, 5 mM sodium orthovanadylate, 5 mM disodium ethylenediaminetetraacetate, and 2 mM Na4P2O7) was then added thereto. The mixture was shaken at 4° C. for 2 hr to prepare a cell extract.
Separately, phosphate buffered saline (50 μl, pH 7.4) containing 5 μg/ml of anti-phospho-tyrosine antibody (PY20; purchased from Transduction Laboratories) was added to a microplate for ELISA (Maxisorp; purchased from NUNC), followed by gentle agitation at 4° C. overnight to coat the surface of the wells with the antibody. After washing of the plate, 300 μl of a blocking solution was added, followed by gentle agitation at room temperature for 2 hr to perform blocking. After washing, the whole quantity of the cell extract was transferred to the wells, and the plate was then allowed to stand at 4° C. overnight. After washing, an anti-HGF receptor antibody (h-Met (C-12), purchased from Santa Cruz Biotechnology) was allowed to react at room temperature for one hr, and, after washing, a peroxidase-labeled anti-rabbit Ig antibody (purchased from Amersham) was allowed to react at room temperature for one hr. After washing, a chromophoric substrate for peroxidase (purchased from Sumitomo Bakelite Co., Ltd.) was added thereto to initiate a reaction. After a suitable level of color development, a reaction termination solution was added to stop the reaction, and the absorbance at 450 nm was measured with a microplate reader.

T1 sequence (P08581 25-1390): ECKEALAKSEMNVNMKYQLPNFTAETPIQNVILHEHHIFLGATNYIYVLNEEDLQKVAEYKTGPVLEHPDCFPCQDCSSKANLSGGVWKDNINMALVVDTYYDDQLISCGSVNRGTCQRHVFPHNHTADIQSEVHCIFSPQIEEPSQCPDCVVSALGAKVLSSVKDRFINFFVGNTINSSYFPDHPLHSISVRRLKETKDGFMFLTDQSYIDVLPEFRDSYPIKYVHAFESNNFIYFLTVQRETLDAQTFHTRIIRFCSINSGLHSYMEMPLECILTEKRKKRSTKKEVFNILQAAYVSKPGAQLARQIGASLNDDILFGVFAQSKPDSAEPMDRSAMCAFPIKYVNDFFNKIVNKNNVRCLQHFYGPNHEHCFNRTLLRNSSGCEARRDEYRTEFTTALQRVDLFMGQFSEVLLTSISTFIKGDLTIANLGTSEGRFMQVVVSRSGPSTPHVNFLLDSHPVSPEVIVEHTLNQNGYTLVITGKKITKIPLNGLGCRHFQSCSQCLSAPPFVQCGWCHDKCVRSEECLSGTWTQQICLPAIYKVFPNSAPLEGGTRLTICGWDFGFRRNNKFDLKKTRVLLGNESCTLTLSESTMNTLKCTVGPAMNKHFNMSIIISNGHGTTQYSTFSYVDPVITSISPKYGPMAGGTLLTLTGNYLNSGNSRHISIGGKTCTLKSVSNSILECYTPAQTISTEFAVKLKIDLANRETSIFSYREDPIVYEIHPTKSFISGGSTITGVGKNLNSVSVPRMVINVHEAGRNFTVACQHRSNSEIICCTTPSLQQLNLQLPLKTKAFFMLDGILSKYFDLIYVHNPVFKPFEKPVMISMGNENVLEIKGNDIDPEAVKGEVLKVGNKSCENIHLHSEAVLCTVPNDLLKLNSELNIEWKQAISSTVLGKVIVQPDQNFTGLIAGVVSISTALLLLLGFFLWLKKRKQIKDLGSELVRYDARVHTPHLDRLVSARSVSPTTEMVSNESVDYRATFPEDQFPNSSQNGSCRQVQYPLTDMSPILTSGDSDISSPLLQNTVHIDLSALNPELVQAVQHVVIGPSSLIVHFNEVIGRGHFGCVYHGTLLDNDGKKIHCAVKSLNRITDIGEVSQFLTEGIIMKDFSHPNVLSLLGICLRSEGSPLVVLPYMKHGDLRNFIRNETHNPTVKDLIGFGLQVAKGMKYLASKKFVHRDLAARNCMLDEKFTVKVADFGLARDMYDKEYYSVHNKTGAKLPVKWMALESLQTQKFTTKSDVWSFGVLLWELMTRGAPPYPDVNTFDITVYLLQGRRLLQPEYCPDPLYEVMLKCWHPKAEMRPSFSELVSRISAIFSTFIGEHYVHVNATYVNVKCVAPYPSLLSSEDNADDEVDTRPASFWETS

SMILES | IC50
COc1cc2c(Oc3ccc(NC(=O)NC(=O)Cc4ccc(F)cc4)c(F)c3)ccnc2cc1OCCCN1CCCCC1 [Example 50, 1-{2-fluoro-4-[6-methoxy-7-(3-piperidin-1-yl-propoxy)quinolin-4-yloxy]phenyl}-3-[2-(4-fluorophenyl)-acetyl]urea] | 0.235 µM
COc1cccc(CC(=O)NC(=S)Nc2ccc(Oc3ccnc4cc(OC)c(OC)cc34)c(Cl)c2)c1 [Example 186, 1-[3-chloro-4-(6,7-dimethoxyquinolin-4-yloxy)phenyl]-3-[2-(3-methoxyphenyl)acetyl]thiourea] | 0.234 µM
COc1cc2nccc(Oc3ccc(NC(=O)NC(=O)Nc4ccccc4SC)cc3)c2cc1OC [Example 253, N-[2-(methylsulfanyl)phenyl]-({[4-(6,7-dimethoxyquinolin-4-yloxy)anilino]carbonyl}amino)-methanamide] | 1.34 µM
COc1cc2nccc(Oc3ccc(NC(=O)NC(=O)Cc4cc(F)cc(F)c4)cc3F)c2cc1OC [Example 142, 1-[2-(3,5-difluorophenyl)acetyl]-3-[4-(6,7-dimethoxyquinolin-4-yloxy)-3-fluorophenyl]urea] | 0.285 µM
COc1cc2nccc(Oc3ccc(NC(=S)NC(=O)Cc4c(Cl)cccc4Cl)c(F)c3)c2cc1OC [Example 208, 1-[2-(2,6-dichlorophenyl)acetyl]-3-[4-(6,7-dimethoxyquinolin-4-yloxy)-2-fluorophenyl]thiourea] | 0.258 µM
COc1cccc(C(=O)NC(=S)Nc2ccc(Oc3ccnc4cc(OC)c(OC)cc34)c(F)c2)c1 [Example 144, 1-[4-(6,7-dimethoxyquinolin-4-yloxy)-3-fluorophenyl]-3-(3-methoxybenzoyl)thiourea] | 0.699 µM
COc1cc2c(Oc3ccc(NC(=O)NC(=O)Cc4ccc(F)cc4)cc3F)ccnc2cc1OCCCCN1CCCCC1 [Example 42, 1-{3-fluoro-4-[6-methoxy-7-(4-piperidine-1-yl-butoxy)quinolin-4-yloxy]phenyl}-3-[2-(4-fluorophenyl)-acetyl]urea] | 0.19 µM
COc1cc2nccc(Oc3ccc(NC(=S)NC(=O)CC4CCC(C)CC4)c(F)c3)c2cc1OC (centres unmarked) [Example 191, 1-[4-(6,7-dimethoxyquinolin-4-yloxy)-2-fluorophenyl]-3-[2-(4-methyl-cyclohexyl)acetyl]thiourea] | 0.977 µM
COc1cc2nccc(Oc3ccc(NC(=O)NC(=O)Nc4ccccc4C(F)(F)F)cc3)c2cc1OC [Example 240, N-[2-(trifluoromethyl)phenyl]-({[4-(6,7-dimethoxyquinolin-4-yloxy)anilino]carbonyl}amino)methan-amide] | 2.74 µM
COc1cc2nccc(Oc3ccc(NC(=S)NC(=O)Cc4cccc(C(F)(F)F)c4)cc3F)c2cc1OC [Example 203, 1-[4-(6,7-dimethoxyquinolin-4-yloxy)-3-fluorophenyl]-3-[2-(3-trifluoromethylphenyl)acetyl]-thiourea] | 0.281 µM
COc1cc2nccc(Oc3ccc(NC(=S)NC(=O)CC4CCCCC4)c(F)c3)c2cc1OC [Example 166, 1-(2-cyclohexylacetyl)-3-[4-(6,7-dimethoxy-quinolin-4-yloxy)-2-fluorophenyl]thiourea] | 0.318 µM
COc1cc2nccc(Oc3ccc(NC(=O)CC(=O)NCC4CCCCC4)cc3)c2cc1OC [Example 218, N-cyclohexylmethyl-N′-[4-(6,7-dimethoxy-quinolin-4-yloxy)phenyl]malonamide] | 0.479 µM

Continued by falling IC50, values first:

IC50 | SMILES
0.228 µM | COc1cc2nccc(Oc3ccc(NC(=O)CC(=O)Nc4cccc(Cl)c4)cc3)c2cc1OC [Example 210, N-(3-chlorophenyl)-N′-[4-(6,7-dimethoxy-quinolin-4-yloxy)phenyl]malonamide]
0.21 µM | COc1cc2nccc(Oc3ccc(NC(=S)NC(=O)Cc4ccccc4)c(C)c3)c2cc1OC [Example 162, 1-[4-(6,7-dimethoxyquinolin-4-yloxy)-2-methylphenyl]-3-phenylacetylthiourea]
0.193 µM | COc1cc2nccc(Oc3ccc(NC(=S)NC(=O)Cc4ccccc4Cl)cc3)c2cc1OC [Example 59, 1-[2-(2-chlorophenyl)acetyl]-3-[4-(6,7-dimethoxyquinolin-4-yloxy)phenyl]thiourea]
0.181 µM | COc1ccccc1NC(=O)NC(=O)Nc1ccc(Oc2ccnc3cc(OC)c(OC)cc23)cc1 [Example 266, N-(2-methoxyphenyl)-({[4-(6,7-dimethoxy-quinolin-4-yloxy)anilino]carbonyl}amino)methanamide]
0.08 µM | COc1cc2nccc(Oc3ccc(NC(=O)NC(=O)Cc4ccccc4F)cc3F)c2cc1OC [Example 27, 1-[4-(6,7-dimethoxyquinolin-4-yloxy)-3-fluorophenyl]-3-[2-(2-fluorophenyl)acetyl]urea]
0.0574 µM | COc1cc2c(Oc3ccc(NC(=S)NC(=O)Cc4ccccc4)cc3F)ccnc2cc1OCCCn1ccnc1 [Example 307, 1-{3-Fluoro-4-[7-(3-imidazol-1-yl-propoxy)-6-methoxy-quinolin-4-yloxy]-phenyl}-3-phenylacetyl-thiourea]
0.0517 µM | COc1cc2nccc(Oc3ccc(NC(=S)NC(=O)Cc4cccc(F)c4)cc3Cl)c2cc1OC [Example 76, 1-[3-chloro-4-(6,7-dimethoxyquinolin-4-yloxy)-phenyl]-3-[2-(3-fluorophenyl)acetyl]thiourea]
0.0374 µM | COc1cc2c(Oc3ccc(NC(=O)NC(=O)Cc4ccccc4)cc3F)ccnc2cc1OCCCN1CCN(C)CC1 [Example 53, 1-(3-fluoro-4-{6-methoxy-7-[3-(4-methyl-piperazin-1-yl)-propoxy]quinolin-4-yloxy}phenyl)-3-phenylacetylurea]
0.0328 µM | COc1cc2c(Oc3ccc(NC(=O)NC(=O)Cc4ccc(F)cc4)cc3F)ccnc2cc1OCC(O)CN1CCOCC1 (centres unmarked) [Example 336, 1-{3-Fluoro-4-[7-(2-hydroxy-3-morpholin-1-yl-propoxy)-6-methoxy-quinolin-4-yloxy]-phenyl}-3-[2-(4-fluoro-phenyl)-acetyl]-urea]
0.0278 µM | COc1cc2nccc(Oc3ccc(NC(=O)CC(=O)Nc4ccc(F)cc4F)c(F)c3)c2cc1OC [Example 98, N-(2,4-difluorophenyl)-N′-[4-(6,7-dimethoxy-quinolin-4-yloxy)-2-fluorophenyl]malonamide]
0.0234 µM | COc1cc2c(Oc3ccc(NC(=S)NC(=O)Cc4cccc(F)c4)cc3F)ccnc2cc1OCC(O)CN1CCCCC1 (centres unmarked) [Example 324, 1-{3-Fluoro-4-[7-(2-hydroxy-3-piperidin-1-yl-propoxy)-6-methoxy-quinolin-4-yloxy]-phenyl}-3-[2-(3-fluoro-phenyl)-acetyl]-thiourea]
0.0224 µM | COc1cc2c(Oc3ccc(NC(=S)NC(=O)Cc4ccccc4)cc3Cl)ccnc2cc1OCCCN1CCOCC1 [Example 300, 1-{3-Chloro-4-[6-methoxy-7-(3-morpholin-4-yl-propoxy)-quinolin-4-yloxy]-phenyl}-3-phenylacetyl-thiourea]
0.0185 µM | COc1cc2c(Oc3ccc(NC(=O)NC(=O)Cc4ccccc4)c(F)c3)ccnc2cc1OCCCN1CCC(CO)CC1 [Example 311, 1-(2-Fluoro-4-{7-[3-(4-hydroxymethyl-piperidin-1-yl)-propoxy]-6-methoxy-quinolin-4-yloxy}-phenyl)-3-phenyl-acetyl-urea]
0.0185 µM | COc1cc2c(Oc3ccc(NC(=S)NC(=O)Cc4cccc(F)c4)cc3F)ccnc2cc1OCC(O)CN1CCCC1 (centres unmarked) [Example 325, 1-{3-Fluoro-4-[7-(2-hydroxy-3-pyrrolidin-1-yl-propoxy)-6-methoxy-quinolin-4-yloxy]-phenyl}-3-[2-(3-fluoro-phenyl)-acetyl]-thiourea]
